This experiment addresses estrogen receptor alpha (ESR1) (Homo sapiens, UniProt P03372). Description: cell-based. As to conditions: for ER-alpha MCF7 HCS Sinf: MCF7 breast cancer cells, 4 hours, plateau of the maximal effect, DMSO and Fulvestrant define 0% and 100% changes in ESR1. Here is the method:
Where more than one name is associated with a Formula I compound or intermediate, the chemical structure shall define the compound.
Cell plates were incubated at 37° C., for 4 hours. Fixation and permeabilization were carried out using a Biotek EL406 plate washer and dispenser as follows. […] Samples were incubated 30 minutes. Well contents was aspirated and 50 ul/well of Phosphate Buffered Saline (PBS) containing 0.5% w/v bovine serum albumen, 0.5% v/v Triton X-100 (Antibody Dilution Buffer) was added to each well. Samples were incubated for 30 minutes. Well contents were aspirated and washed 3 times with 100 ul/well of PBS. Immunofluorescence staining of estrogen receptor alpha (ESR1) was carried out using a Biotek EL406 plate washer and dispenser as follows. […] Samples were incubated for 2 hours at room temperature. Samples were washed 4 times with 100 ul/well of PBS. […] Samples were incubated for 2 hours at room temperature. Samples were washed 3 times with 100 ul/well of PBS using a Biotek EL406. Quantitative fluorescence imaging of ESR1 was carried out using a Cellomics Arrayscan V (Thermo). […] Channel 1 (DNA stain) was used to define the nuclear region (Circ). […] Data analysis was carried out using Genedata Screener Software, with DMSO and 5 nM Fulvestrant treated samples being used to define the 0% and 100% changes in ESR1. The “Robust Fit” method was used to define the inflexion point of curve (EC50) and the plateau of the maximal effect (Sin f).

estrogen receptor alpha (ESR1), sequence (P03372 whole entry): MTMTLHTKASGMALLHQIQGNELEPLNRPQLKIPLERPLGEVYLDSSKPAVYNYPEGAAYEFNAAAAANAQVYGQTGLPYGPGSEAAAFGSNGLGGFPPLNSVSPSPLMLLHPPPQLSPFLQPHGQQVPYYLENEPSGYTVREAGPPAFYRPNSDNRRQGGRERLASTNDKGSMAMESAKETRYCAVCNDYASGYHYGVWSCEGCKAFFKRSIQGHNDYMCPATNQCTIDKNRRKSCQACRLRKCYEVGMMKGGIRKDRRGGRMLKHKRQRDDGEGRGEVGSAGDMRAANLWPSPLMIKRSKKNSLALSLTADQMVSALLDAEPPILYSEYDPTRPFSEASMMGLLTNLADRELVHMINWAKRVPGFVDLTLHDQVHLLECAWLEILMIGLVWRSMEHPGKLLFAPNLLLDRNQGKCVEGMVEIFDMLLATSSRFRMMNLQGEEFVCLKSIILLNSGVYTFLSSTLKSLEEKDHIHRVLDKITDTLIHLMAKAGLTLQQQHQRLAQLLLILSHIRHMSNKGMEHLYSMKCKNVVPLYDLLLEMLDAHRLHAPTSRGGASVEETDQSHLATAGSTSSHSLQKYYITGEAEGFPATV

As a reminder, the EC50 is the concentration at which the effect is half-maximal. Low values mean an effect from little substance, high ones a need for much substance. For the compound `Cc1cc(-c2c(C)c3cc(O)ccc3n2Cc2ccc(OCCN3CC[C@@H](CF)C3)cc2)ccc1O` [Example 42, (R)-1-(4-(2-(3-(fluoromethyl)pyrrolidin-1-yl)ethoxy)benzyl)-2-(4-hydroxy-3-methylphenyl)-3-methyl-1H-indol-5-ol], the EC50 was determined as 0.025 nM and the “ER-alpha MCF7 HCS Sinf” value is listed as −97.5%.

Consider `Oc1ccc(-c2sc3cc(O)ccc3c2Oc2ccc(OCCN3CC(CF)C3)cc2)cc1` [Example 11, 3-(4-(2-(3-(Fluoromethyl)azetidin-1-yl)ethoxy)phenoxy)-2-(4-hydroxyphenyl)benzo[b]thiophen-6-ol], for which the EC50 was 0.13 nM and the “ER-alpha MCF7 HCS Sinf” value was −94%.

In the case of `O=C(c1ccc(OCCN2CC(CF)C2)cc1)c1c(-c2ccc(F)cc2)sc2cc(O)ccc12` [Example 10, (4-(2-(3-(fluoromethyl)azetidin-1-yl)ethoxy)phenyl)(2-(4-fluorophenyl)-6-hydroxyhenzo[b]thiophen-3-yl)methanone], the EC50 amounted to 0.45 nM and the “ER-alpha MCF7 HCS Sinf” value is −96%.

Consider `CS(=O)(=O)c1ccc(-c2ccc3cc(O)ccc3c2Oc2ccc(OCCN3CC[C@@H](CF)C3)cc2)cc1` [Example 8, (R)-5-(4-(2-(3-(Fluoromethyl)pyrrolidin-1-yl)ethoxy)phenoxy)-6-(4-(methylsulfonyl)phenyl)naphthalen-2-ol], for which the EC50 was 0.27 nM and the “ER-alpha MCF7 HCS Sinf” value is listed as −95%.

Turning to `Oc1ccc2c(c1)C1=C(c3cc(O)ccc3OCC1)[C@H](c1ccc(OCCN3CC(CF)C3)cc1)O2` [Example 74, (S)-8-(4-(2-(3-(fluoromethyl)azetidin-1-yl)ethoxy)phenyl)-1,8-dihydro-2H-benzo[2,3]oxepino[4,5-c]chromene-6,12-diol], the EC50 amounted to 0.19 nM and the “ER-alpha MCF7 HCS Sinf” value is reported as −93.3%.

Take `Oc1ccc([C@H]2Sc3cc(O)ccc3O[C@H]2c2ccc(OCCN3CC[C@@H](CF)C3)cc2)cc1` (racemic) [Example 28, 2-(4-(2-((R)-3-(Fluoromethyl)pyrrolidin-1-yl)ethoxy)phenyl)-3-(4-hydroxyphenyl)-2,3-dihydrobenzo[b][1,4]oxathiin-6-ol]: the EC50 came out at 1 nM and the “ER-alpha MCF7 HCS Sinf” value is reported as −97%.

Turning to `COc1ccc(-c2sc3cc(O)ccc3c2Oc2ccc(OC[C@H](C)N3CC[C@@H](CF)C3)cc2)cc1` [Example 12, 3-(4-((S)-2-((R)-3-(Fluoromethyl)pyrrolidin-1-yl)propoxy)phenoxy)-2-(4-methoxyphenyl)benzo [6]thiophen-6-ol], the response was half-maximal at 310 nM (EC50) and the “ER-alpha MCF7 HCS Sinf” value was −50%.

Take `O=C(c1ccc(OCCN2CC(CF)C2)c(F)c1)c1c(-c2ccccc2Cl)noc1-c1ccc(O)cc1` [Example 17, [3-(2-Chloro-phenyl)-5-(4-hydroxy-phenyl)-isoxazol-4-yl]-{3-fluoro-4-[2-(3-fluoromethyl-azetidin-1-yl)-ethoxy]-phenyl}-methanone]: the EC50 is 0.3 nM and the “ER-alpha MCF7 HCS Sinf” value is −102%.

As to `Oc1ccc2c(c1)CC[C@H](c1ccccc1)[C@@H]2c1ccc(OCCN2CC(CF)C2)cc1` (racemic) [Example 34, cis-5-(4-(2-(3-(Fluoromethyl)azetidin-1-yl)ethoxy)phenyl)-6-phenyl-5,6,7,8-tetrahydronaphthalen-2-ol], the midpoint of the response, the EC50, lay at 0.016 nM and the “ER-alpha MCF7 HCS Sinf” value is −99.3%.

For the compound `CC/C(=C(/c1ccc(OCCN2CC(CF)C2)cc1)c1ccc2[nH]ncc2c1)c1ccccc1` [Example 25, (E)-5-(1-(4-(2-(3-(Fluoromethyl)azetidin-1-yl)ethoxy)phenyl)-2-phenylbut-1-en-1-yl)-1H-indazole], the concentration giving a half-maximal response (EC50) turned out to be 1.5 nM and the “ER-alpha MCF7 HCS Sinf” value is −92%.

As for `Oc1ccc(-c2onc(-c3ccccc3Cl)c2-c2ccc(OCCN3CC[C@@H](CF)C3)cc2)cc1` [Example 15, (R)-4-(3-(2-Chlorophenyl)-4-(4-(2-(3-(fluoromethyl)pyrrolidin-1-yl)ethoxy)phenyl)isoxazol-5-yl)phenol], the EC50 was found to be 2.3 nM and the “ER-alpha MCF7 HCS Sinf” value was −84%.

Regarding `Cc1cc(-c2sc3cc(O)ccc3c2C(=O)c2ccc(OCCN3CC(CF)C3)cc2)ccc1F` [Example 36, (2-(4-fluoro-3-methylphenyl)-6-hydroxybenzo[b]thiophen-3-yl)(4-(2-(3-(fluoromethyl)azetidin-1-yl)ethoxy)phenyl)methanone], the EC50 was found to be 2.5 nM and the “ER-alpha MCF7 HCS Sinf” value is reported as −97%.

In the case of `COc1ccc(/C(=C(\c2ccc(OCCN3CC[C@@H](CF)C3)cc2)c2ccc3[nH]nc(F)c3c2)C2CCC2)c(Cl)c1` [Example 26, (R,E)-5-(2-(2-Chloro-4-methoxyphenyl)-2-cyclobutyl-1-(4-(2-(3-(fluoromethyl)pyrrolidin-1-yl)ethoxy)phenyl)vinyl)-3-fluoro-1H-indazole], the EC50 was 0.6 nM and the “ER-alpha MCF7 HCS Sinf” value was −75%.

Turning to `C[C@@H](COc1ccc(Oc2c(-c3ccc(S(C)(=O)=O)cc3)ccc3cc(O)ccc23)cc1)N1CC[C@@H](CF)C1` [Example 66, 5-[4-[(2S)-2-[(3R)-3-(fluoromethyl)pyrrolidin-1-yl]propoxy]phenoxy]-6-(4-methylsulfonylphenyl) naphthalen-2-ol], a half-maximal response (EC50) required 0.006 nM and the “ER-alpha MCF7 HCS Sinf” value was −93.4%.

`Cc1cc(F)ccc1-c1sc2cc(O)ccc2c1C(=O)c1ccc(OCCN2CC(CF)C2)cc1` [Example 38, (2-(4-fluoro-2-methylphenyl)-6-hydroxybenzo[b]thiophen-3-yl)(4-(2-(3-(fluoromethyl)azetidin-1-yl)ethoxy)phenyl)methanone]: a half-maximal response (EC50) required 0.88 nM and the “ER-alpha MCF7 HCS Sinf” value was −96%.

For the compound `Cc1c(-c2ccc(O)cc2)n(Cc2ccc(OCCN3CC(CF)C3)cc2)c2ccc(O)cc12` [Example 1, 1-(4-(2-(3-(Fluoromethyl)azetidin-1-yl)ethoxy)benzyl)-2-(4-hydroxyphenyl)-3-methyl-1H-indol-5-ol], the EC50 is 0.46 nM and the “ER-alpha MCF7 HCS Sinf” value is given as −95%.

For the compound `Cc1c(-c2ccc(O)c(F)c2)n(Cc2ccc(OCCN3CC[C@@H](CF)C3)cc2)c2ccc(O)cc12` [Example 44, 2-(3-fluoro-4-hydroxy-phenyl)-1-[[4-[2-[(3R)-3-(fluoromethyl)pyrrolidin-1-yl]ethoxy]phenyl]methyl]-3-methyl-indol-5-ol], the EC50 turned out to be 0.0278 nM and the “ER-alpha MCF7 HCS Sinf” value was −98.1%.

As to `C[C@@H](COc1ccc([C@@H]2Oc3ccc(O)cc3S[C@@H]2c2ccc(O)cc2)cc1)N1CC[C@@H](CF)C1` (mixture of isomers) [Example 30, 2-(4-((S)-2-((R)-3-(Fluoromethyl)pyrrolidin-1-yl)propoxy)phenyl)-3-(4-hydroxyphenyl)-2,3-dihydrobenzo[b][1,4]oxathiin-6-ol], the EC50 is 1.1 nM and the “ER-alpha MCF7 HCS Sinf” value is on record as −99%.

As to `Cc1cc(-c2c(C)c3cc(O)ccc3n2Cc2ccc(OC[C@H](C)N3CC[C@@H](CF)C3)cc2)ccc1O` [Example 43, 1-[[4-[(2S)-2-[(3R)-3-(fluoromethyl)pyrrolidin-1-yl]propoxy]phenyl]methyl]-2-(4-hydroxy-3-methyl-phenyl)-3-methyl-indol-5-ol], the EC50 came to 0.0179 nM and the “ER-alpha MCF7 HCS Sinf” value is −96.0%.

In the case of `Oc1ccc2c(c1)O[C@@H](c1ccc(OCCN3CC(CF)C3)cc1)C1=C2CCOc2ccc(O)cc21` [Example 78, (S)-8-(4-(2-(3-(fluoromethyl)azetidin-1-yl)ethoxy)phenyl)-2,8-dihydro-1H-benzo[2,3]oxepino[4,5-c]chromene-6,11-diol], the EC50 was 0.611 nM and the “ER-alpha MCF7 HCS Sinf” value is −90.0%.

Turning to `CS(=O)(=O)c1ccc(-c2ccc3cc(O)ccc3c2Oc2ccc(OCCN3CC(CF)C3)cc2)cc1` [Example 7, 5-(4-(2-(3-(Fluoromethyl)azetidin-1-yl)ethoxy)phenoxy)-6-(4-(methylsulfonyl)phenyl)naphthalen-2-ol], the EC50 stood at 1.6 nM and the “ER-alpha MCF7 HCS Sinf” value was −95%.

Consider `Oc1ccc2c(c1)O[C@H](c1ccc(OCCN3CC(CF)C3)cc1)C1=C2CCOc2ccc(O)cc21` [Example 77, (R)-8-(4-(2-(3-(fluoromethyl)azetidin-1-yl)ethoxy)phenyl)-2,8-dihydro-1H-benzo[2,3]oxepino[4,5-c]chromene-6,11-diol], for which the midpoint of the response, the EC50, lay at 9.59 nM and the “ER-alpha MCF7 HCS Sinf” value is given as −84.5%.

For the compound `Oc1cccc([C@H]2Sc3cc(O)ccc3O[C@H]2c2ccc(OCCN3CC(CF)C3)cc2)c1` (racemic) [Example 31, 2-(4-(2-(3-(Fluoromethyl)azetidin-1-yl)ethoxy)phenyl)-3-(3-hydroxyphenyl)-2,3-dihydrobenzo[b][1,4]oxathiin-6-ol], the EC50 amounted to 1.1 nM and the “ER-alpha MCF7 HCS Sinf” value was −97%.

`Cc1c(-c2ccc(O)cc2Cl)n(Cc2ccc(OCCN3CC(CF)C3)cc2)c2ccc(O)cc12` [Example 47, 2-(2-chloro-4-hydroxy-phenyl)-1-[[4-[2-[3-(fluoromethyl)azetidin-1-yl]ethoxy]phenyl]methyl]-3-methyl-indol-5-ol]: the midpoint of the response, the EC50, lay at 0.115 nM and the “ER-alpha MCF7 HCS Sinf” value is given as −94.1%.

The values above are taken from patent US9845291B2, “Estrogen receptor modulators and uses thereof” (Genentech, Inc., priority 2014, dated 2017).
